Values joined by “and” are separate entries in the source; they are usually repeats but may differ in a detail not shown here. Equal entries are not always repeated.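 The compound was tested at five concentrations on cells cultured in 96-well plates, with a 48-hour exposure period. GI50 marks 50% less growth. TGI denotes the concentration required for complete inhibition of growth.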
How the values were obtained:
Experiment in all cases: NCI-60 cell line screen, 48 h
[1] = tested on: HL-60(TB) leukemia
[2] = tested on: MDA-MB-231 breast
[3] = tested on: OVCAR-4 ovarian
[4] = tested on: MDA-MB-435
[5] = tested on: SN12C renal
[6] = tested on: NCI-H522 lung
[7] = tested on: ACHN renal
[8] = tested on: HT29 colon
[9] = tested on: UACC-257 melanoma
[10] = tested on: NCI-H460 lung
[11] = tested on: SNB-19 CNS

In the case of O=C(c1nc2ccc([N+](=O)[O-])cc2[nH]c1=O)C(O)c1ccc2c(c1)OCO2 (stereo not drawn), the TGI [1] is reported as greater than 100 µM, the TGI [2] is reported as greater than 100 µM and the TGI [3] is reported as greater than 100 µM. The TGI [4] was greater than 100 µM, the TGI [5] was greater than 100 µM and the TGI [6] was greater than 100 µM. The TGI [7] was greater than 100 µM, the TGI [8] was greater than 100 µM and the TGI [9] was greater than 100 µM. The TGI [10] was greater than 100 µM and the TGI [11] was greater than 100 µM.
In the case of Cc1ccc2c(c1)C(=O)c1nc(C)ccc1C2=O, the TGI [1] is reported as 70.3 µM, the TGI [2] is reported as 62.1 µM and the TGI [3] is reported as 89 µM. It also gave a TGI [4] of 44 µM, a TGI [5] of 87.9 µM and a TGI [6] of 74.2 µM. For the same compound, the TGI [7] was greater than 100 µM, the TGI [8] was 83 µM and the TGI [9] was 45.2 µM. For the same compound, the TGI [11] was 63.7 µM.
Compound Nc1[nH]nc(Nc2ccc(Cl)cc2)c1P(=O)(c1ccccc1)c1ccccc1 has a TGI [1] of 82.3 µM, a TGI [2] of 49.8 µM and a TGI [3] of 80.8 µM. The TGI [4] was 42.8 µM, the TGI [6] was 48.5 µM and the TGI [7] was greater than 100 µM. The TGI [8] was 65.2 µM, the TGI [9] was greater than 100 µM and the TGI [10] was greater than 100 µM. For the same compound, the TGI [11] was 92.4 µM.
Cc1ccc(/C=N/n2c(-c3ccc(C)cc3)n[nH]c2=O)cc1 showed a TGI [1] greater than 100 µM, a TGI [2] greater than 100 µM and a TGI [3] greater than 100 µM. For the same compound, the TGI [4] was greater than 100 µM, the TGI [5] was greater than 100 µM and the TGI [6] was greater than 100 µM. It also gave a TGI [7] greater than 100 µM, a TGI [8] greater than 100 µM and a TGI [9] greater than 100 µM. It also gave a TGI [10] greater than 100 µM and a TGI [11] greater than 100 µM.
Work on CCCCCCCCCCCCCCCCNC(=O)C(=O)/C=C(\O)c1ccc(C)cc1 yielded a TGI [1] greater than 10 µM, a TGI [2] greater than 10 µM and a TGI [3] greater than 10 µM. For the same compound, the TGI [4] was greater than 10 µM, the TGI [5] was greater than 10 µM and the TGI [6] was greater than 10 µM. The TGI [7] was greater than 10 µM, the TGI [8] was greater than 10 µM and the TGI [9] was greater than 10 µM. The TGI [10] was greater than 10 µM.
Work on Nc1nc(Cl)c(N)c(NCC2(CO)CC2)n1 yielded a TGI [1] greater than 100 µM, a TGI [2] greater than 100 µM and a TGI [3] greater than 100 µM. The TGI [4] was greater than 100 µM, the TGI [5] was greater than 100 µM and the TGI [6] was greater than 100 µM. For the same compound, the TGI [7] was greater than 100 µM, the TGI [8] was greater than 100 µM and the TGI [9] was greater than 100 µM. For the same compound, the TGI [10] was greater than 100 µM and the TGI [11] was greater than 100 µM.
CN(Cc1cnc2nc(N)nc(N)c2n1)c1ccc(C(=O)N[C@@H](CCC(=O)O)C(=O)O)cc1 showed a GI50 [1] of 0.0259 µM, a TGI [1] of 178 µM and a TGI [2] greater than 250 µM. For the same compound, the TGI [3] was 238 µM and > 250 µM, the GI50 [4] was 0.0672 µM and 0.0441 µM and the TGI [4] was greater than 250 µM. For the same compound, the TGI [5] was 181 µM and > 250 µM, the TGI [6] was 155 µM and > 250 µM and the TGI [7] was greater than 233 µM. For the same compound, the TGI [8] was 240 µM and > 250 µM, the GI50 [9] was 1.89 µM and the TGI [9] was greater than 237 µM. For the same compound, the GI50 [10] was 0.00707 µM, the TGI [10] was greater than 245 µM and the TGI [11] was 211 µM and > 250 µM.
In the case of C=C(C(=O)O)[C@@H]1C[C@@H]2O[C@H]1[C@@H](O)[C@@H](C)CCCC(C)=CCC[C@@]2(C)O, the GI50 [1] is reported as 10.5 µM and 32.5 µM, the TGI [1] is reported as greater than 100 µM and the TGI [2] is reported as greater than 100 µM. It also gave a TGI [3] greater than 100 µM, a TGI [4] greater than 100 µM and a TGI [5] greater than 100 µM. For the same compound, the GI50 [6] was 29.3 µM and 67.6 µM, the TGI [6] was greater than 100 µM and the TGI [7] was greater than 100 µM. The GI50 [8] was 32.4 µM and > 100 µM, the TGI [8] was greater than 100 µM and the TGI [9] was greater than 100 µM. For the same compound, the TGI [10] was greater than 100 µM and the TGI [11] was greater than 100 µM.
In the case of O=C1C(Br)=C(c2ccccc2)O/C1=C/C(=O)c1ccc(Br)cc1, the TGI [1] is reported as 52.4 µM, the TGI [2] is reported as greater than 100 µM and the TGI [3] is reported as greater than 100 µM. For the same compound, the TGI [4] was greater than 100 µM, the TGI [5] was 26.9 µM and the TGI [6] was 39.1 µM. It also gave a TGI [7] greater than 100 µM, a TGI [8] greater than 100 µM and a TGI [10] greater than 100 µM. The TGI [11] was greater than 100 µM.
Compound O=C1/C(=C\c2cccc(Oc3ccccc3)c2)SC(c2ccccc2)N1c1ccccc1 (stereo not drawn) has a TGI [1] greater than 100 µM, a TGI [2] greater than 100 µM and a TGI [3] greater than 100 µM. It also gave a TGI [4] greater than 100 µM, a TGI [5] greater than 100 µM and a TGI [6] greater than 100 µM. It also gave a TGI [7] greater than 100 µM, a TGI [8] greater than 100 µM and a TGI [9] greater than 100 µM. For the same compound, the TGI [10] was greater than 100 µM and the TGI [11] was greater than 100 µM.
In the case of Cc1ccc(NC=O)c(-c2c(N)[nH]c(=S)[nH]c2=O)c1, the TGI [1] is reported as greater than 100 µM, the TGI [2] is reported as greater than 100 µM and the TGI [4] is reported as greater than 100 µM. It also gave a TGI [5] greater than 100 µM, a TGI [6] greater than 100 µM and a TGI [7] greater than 100 µM. The TGI [8] was greater than 100 µM, the TGI [9] was greater than 100 µM and the TGI [11] was greater than 100 µM.
In the case of COc1cc2c(cc1OC)C(=O)N(c1ccc(O)cc1)C2=O, the TGI [1] is reported as greater than 100 µM, the TGI [2] is reported as greater than 100 µM and the TGI [3] is reported as greater than 100 µM. For the same compound, the TGI [4] was greater than 100 µM, the TGI [5] was greater than 100 µM and the TGI [6] was greater than 100 µM. The TGI [7] was greater than 100 µM, the TGI [8] was greater than 100 µM and the TGI [9] was greater than 100 µM. The TGI [10] was greater than 100 µM and the TGI [11] was greater than 100 µM.
CC(=N\N)/C(C)=N/N=C(C)/C(C)=N/N gave a TGI [1] greater than 100 µM, a TGI [2] greater than 100 µM and a TGI [3] greater than 100 µM. It also gave a TGI [4] greater than 100 µM, a TGI [5] greater than 100 µM and a TGI [6] greater than 100 µM. For the same compound, the TGI [7] was greater than 100 µM, the TGI [8] was greater than 100 µM and the TGI [9] was greater than 100 µM. The TGI [10] was greater than 100 µM and the TGI [11] was greater than 100 µM.
With CS(=O)(=O)OCCN(CCOS(C)(=O)=O)c1ccc(C=Nc2cccc(Cl)c2)cc1 the TGI [1] was greater than 100 µM, the TGI [2] was 48.6 µM and the TGI [3] was greater than 63.6 µM. The TGI [4] was 30.3 µM, the TGI [5] was 27.8 µM and the TGI [6] was 2.84 µM. For the same compound, the TGI [7] was 0.651 µM, the TGI [8] was 33.6 µM and the TGI [9] was 21.1 µM. For the same compound, the TGI [10] was greater than 33.4 µM and the TGI [11] was greater than 46.2 µM.
CCOC(=O)c1c(N=P(c2ccccc2)(c2ccccc2)c2ccccc2)nnc(-c2ccccc2)c1-c1ccccc1 gave a TGI [1] greater than 100 µM, a TGI [2] greater than 100 µM and a TGI [3] greater than 100 µM. The TGI [4] was greater than 100 µM, the TGI [5] was greater than 100 µM and the TGI [6] was greater than 100 µM. It also gave a TGI [7] greater than 100 µM, a TGI [8] greater than 100 µM and a TGI [9] greater than 100 µM. The TGI [10] was greater than 100 µM and the TGI [11] was greater than 100 µM.
With COC(=O)c1ccc(/C=C2\Oc3ccccc3C2=O)cc1 the TGI [1] was 54.4 µM, the TGI [2] was greater than 100 µM and the TGI [3] was greater than 100 µM. The TGI [4] was greater than 100 µM, the TGI [5] was greater than 100 µM and the TGI [6] was greater than 100 µM. For the same compound, the TGI [7] was greater than 100 µM, the TGI [8] was greater than 100 µM and the TGI [9] was greater than 100 µM. It also gave a TGI [10] greater than 100 µM and a TGI [11] greater than 100 µM.
c1cc2c(s1)-c1sccc1C21OCCO1 gave a TGI [1] greater than 100 µM, a TGI [2] greater than 100 µM and a TGI [3] greater than 100 µM. For the same compound, the TGI [4] was greater than 100 µM, the TGI [5] was greater than 100 µM and the TGI [6] was greater than 100 µM. The TGI [7] was greater than 100 µM, the TGI [8] was greater than 100 µM and the TGI [9] was greater than 100 µM. The TGI [10] was greater than 100 µM and the TGI [11] was greater than 100 µM.
Work on Clc1ccc(C2=NN=C3C(c4ccccc4)=Nc4ccccc4N3C2)cc1 yielded a TGI [1] of 17.6 µM, a TGI [2] greater than 100 µM and a TGI [3] greater than 43.9 µM. For the same compound, the TGI [4] was greater than 100 µM, the TGI [5] was greater than 100 µM and the TGI [6] was 8.17 µM. It also gave a TGI [7] greater than 100 µM, a TGI [8] greater than 25.8 µM and a TGI [9] greater than 100 µM. The TGI [11] was greater than 100 µM.
O=C(NCCN1CCOCC1)c1cn2c(ccc3sc4ccccc4c(=O)c32)n1 gave a TGI [1] of 36.3 µM, a TGI [2] greater than 100 µM and a TGI [4] greater than 100 µM. It also gave a TGI [5] greater than 100 µM, a TGI [6] greater than 100 µM and a TGI [7] greater than 100 µM. It also gave a TGI [8] of 25.6 µM, a TGI [9] greater than 100 µM and a TGI [10] of 18.3 µM. It also gave a TGI [11] greater than 100 µM.

— PubChem BioAssay (NCI)
